According to US20230111853A1, “COMPOUNDS MODULATING PROTEIN RECRUITMENT AND/OR DEGRADATION” (Orionis Biosciences, Inc., priority 2019, published 2023):
pEC50: −log10 of the molar value.

Legend:
Format in all cases: cell-based
[1] = target: T1, IKZF1 (isoform 7) recruitment to CRBN (Homo sapiens, UniProt Q96SW2); assay: Recruitment Assay (MAPPIT-like): IKZF1 recruitment to CRBN; conditions: HEK293T cells; pSEL-CRBN+pMG1-IKZF1(isoform 7); luciferase 24 hours after treatment; read-out: EC50_IKZF1
T1 construct: Full size proteins were fused for each of the target proteins tested, except in the case of IKZF1 where isoform 7 was used; expressed in transfected cells; host or cells: HEK293T
Procedure: (§1) In this experimental set-up, cells were transfected with a construct encoding a CRBN-fusion protein and another one encoding a substrate-fusion protein. Test compound activity was assessed with increasing concentrations of test compounds (dose-response studies) to monitor the ability to promote CRBN-ligand-induced protein interaction.
(§2) Full size proteins were fused for each of the target proteins tested, except in the case of IKZF1 where isoform 7 was used. For the study, the following were used: IKZF1 recruitment: pSEL-CRBN+pMG1-IKZF1(isoform 7); ASS1 recruitment: pSEL-CRBN+pMG1-ASS1. SALL4 recruitment: pSEL-SALL4+pMG1-CRBN. […] Luciferase activity was measured 24 hours after test compound treatment using the Luciferase Assay System kit (PROMEGA, Madison, Wis.) with an Ensight plate reader (PERKIN ELMER LIFE SCIENCES, Waltham, Mass.). Data points depicted fold induction of the average luciferase activity of triplicate samples from EPO+test compound treated cells versus EPO only treated cells. Error bars represent standard deviations. Curves were fit using 4-parameter nonlinear regression in […] PRISM software.

[2] = tested on: IKZF1, ASS1 and SALL4 recruitment to CRBN; assay: Recruitment assessment: recruitment of any tested substrate from among IKZF1, ASS1 and SALL4; conditions: any tested substrate at any tested compound concentration
[3] = target: T2, SALL4 recruitment to CRBN (Homo sapiens, UniProt Q96SW2); assay: Recruitment Assay (MAPPIT-like): SALL4 recruitment to CRBN; conditions: HEK293T cells; pSEL-SALL4+pMG1-CRBN; luciferase 24 hours after treatment; read-out: EC50_SALL4
T2 construct: Full size proteins were fused for each of the target proteins tested, except in the case of IKZF1 where isoform 7 was used; expressed in transfected cells; host or cells: HEK293T
Procedure: as §1, §2

[4] = target: T3, ASS1 recruitment to CRBN (Homo sapiens, UniProt Q96SW2); assay: Recruitment Assay (MAPPIT-like): ASS1 recruitment to CRBN; conditions: HEK293T cells; pSEL-CRBN+pMG1-ASS1; luciferase 24 hours after treatment; read-out: EC50_ASS1
T3 construct: Full size proteins were fused for each of the target proteins tested, except in the case of IKZF1 where isoform 7 was used; expressed in transfected cells; host or cells: HEK293T
Procedure: as §1, §2

T2 sequence (Q96SW2 whole entry, the tested form may be a part, canonical isoform): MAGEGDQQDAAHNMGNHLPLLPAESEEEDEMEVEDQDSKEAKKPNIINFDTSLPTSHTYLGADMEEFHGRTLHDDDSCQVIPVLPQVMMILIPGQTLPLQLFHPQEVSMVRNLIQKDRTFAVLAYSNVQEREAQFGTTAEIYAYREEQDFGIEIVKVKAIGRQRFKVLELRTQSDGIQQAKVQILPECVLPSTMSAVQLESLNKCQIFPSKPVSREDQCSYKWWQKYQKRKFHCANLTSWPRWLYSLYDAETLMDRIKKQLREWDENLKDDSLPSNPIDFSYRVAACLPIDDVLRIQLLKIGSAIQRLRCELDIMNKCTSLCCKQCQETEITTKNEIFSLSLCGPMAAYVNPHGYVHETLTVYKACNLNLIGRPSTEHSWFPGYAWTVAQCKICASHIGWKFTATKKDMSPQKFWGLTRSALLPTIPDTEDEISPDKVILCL
T2 sequence (Q9UJQ4 whole entry partner, the tested form may be a part, canonical isoform): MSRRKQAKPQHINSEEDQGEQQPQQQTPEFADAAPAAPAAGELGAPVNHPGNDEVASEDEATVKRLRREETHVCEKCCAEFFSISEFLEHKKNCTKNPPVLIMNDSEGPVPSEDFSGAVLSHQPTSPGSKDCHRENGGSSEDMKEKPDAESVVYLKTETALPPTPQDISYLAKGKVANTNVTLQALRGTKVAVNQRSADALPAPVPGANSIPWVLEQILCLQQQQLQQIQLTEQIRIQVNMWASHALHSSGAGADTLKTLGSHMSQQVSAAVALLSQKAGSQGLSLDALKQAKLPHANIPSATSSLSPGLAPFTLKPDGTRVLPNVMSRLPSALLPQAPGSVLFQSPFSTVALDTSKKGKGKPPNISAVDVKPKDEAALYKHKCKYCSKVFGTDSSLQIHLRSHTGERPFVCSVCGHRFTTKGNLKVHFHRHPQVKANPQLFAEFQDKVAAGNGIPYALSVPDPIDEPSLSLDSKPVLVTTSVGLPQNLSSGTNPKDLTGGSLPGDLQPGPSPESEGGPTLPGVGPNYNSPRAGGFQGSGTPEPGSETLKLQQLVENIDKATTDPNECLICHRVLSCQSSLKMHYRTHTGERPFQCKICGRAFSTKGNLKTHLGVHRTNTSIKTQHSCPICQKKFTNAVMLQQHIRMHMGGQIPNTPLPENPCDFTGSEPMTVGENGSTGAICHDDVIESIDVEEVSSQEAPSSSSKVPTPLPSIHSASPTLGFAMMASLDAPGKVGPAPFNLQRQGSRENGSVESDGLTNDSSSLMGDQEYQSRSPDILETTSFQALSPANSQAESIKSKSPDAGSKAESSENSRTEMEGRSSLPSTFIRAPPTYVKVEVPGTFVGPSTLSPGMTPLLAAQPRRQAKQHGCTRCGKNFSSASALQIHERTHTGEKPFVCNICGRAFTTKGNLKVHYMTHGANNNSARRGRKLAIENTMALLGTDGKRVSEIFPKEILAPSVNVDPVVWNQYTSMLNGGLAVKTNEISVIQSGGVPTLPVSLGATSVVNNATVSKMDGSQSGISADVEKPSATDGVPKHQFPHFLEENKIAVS
T2 sequence (Q16531 whole entry partner, the tested form may be a part, canonical isoform): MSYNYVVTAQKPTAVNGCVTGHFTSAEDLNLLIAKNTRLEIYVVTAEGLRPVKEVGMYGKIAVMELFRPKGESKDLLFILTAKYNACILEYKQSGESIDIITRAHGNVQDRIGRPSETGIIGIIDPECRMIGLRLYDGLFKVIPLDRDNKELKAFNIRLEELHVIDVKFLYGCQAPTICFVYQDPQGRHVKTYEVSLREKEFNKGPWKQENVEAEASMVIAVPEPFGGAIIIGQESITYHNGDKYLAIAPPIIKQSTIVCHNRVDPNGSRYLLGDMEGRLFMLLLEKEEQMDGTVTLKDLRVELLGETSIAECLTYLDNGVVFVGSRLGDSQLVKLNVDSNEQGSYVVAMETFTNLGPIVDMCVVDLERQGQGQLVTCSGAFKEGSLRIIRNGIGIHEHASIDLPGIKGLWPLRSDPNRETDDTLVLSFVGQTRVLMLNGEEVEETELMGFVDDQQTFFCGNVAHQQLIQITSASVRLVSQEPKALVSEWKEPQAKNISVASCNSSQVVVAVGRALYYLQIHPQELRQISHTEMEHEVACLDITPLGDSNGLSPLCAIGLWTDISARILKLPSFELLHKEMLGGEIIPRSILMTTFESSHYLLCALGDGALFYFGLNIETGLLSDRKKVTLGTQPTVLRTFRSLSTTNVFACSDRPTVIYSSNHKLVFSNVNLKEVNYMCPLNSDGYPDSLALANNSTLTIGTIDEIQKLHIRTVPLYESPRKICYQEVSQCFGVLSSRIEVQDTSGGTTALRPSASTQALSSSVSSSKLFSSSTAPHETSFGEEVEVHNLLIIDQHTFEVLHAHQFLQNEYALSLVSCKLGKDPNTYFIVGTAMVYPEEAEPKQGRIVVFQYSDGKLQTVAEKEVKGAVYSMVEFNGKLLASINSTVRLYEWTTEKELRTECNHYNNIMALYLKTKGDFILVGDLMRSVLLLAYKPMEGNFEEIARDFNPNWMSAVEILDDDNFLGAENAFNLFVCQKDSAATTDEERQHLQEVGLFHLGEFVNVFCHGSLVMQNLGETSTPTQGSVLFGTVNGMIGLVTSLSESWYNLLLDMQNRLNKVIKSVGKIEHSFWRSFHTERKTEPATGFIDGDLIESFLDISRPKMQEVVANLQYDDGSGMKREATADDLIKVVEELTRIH
T3 sequence (Q96SW2 whole entry, the tested form may be a part, canonical isoform): as the sequence (Q96SW2 whole entry, the tested form may be a part, canonical isoform) above
T3 sequence (P00966 whole entry partner, the tested form may be a part, canonical isoform): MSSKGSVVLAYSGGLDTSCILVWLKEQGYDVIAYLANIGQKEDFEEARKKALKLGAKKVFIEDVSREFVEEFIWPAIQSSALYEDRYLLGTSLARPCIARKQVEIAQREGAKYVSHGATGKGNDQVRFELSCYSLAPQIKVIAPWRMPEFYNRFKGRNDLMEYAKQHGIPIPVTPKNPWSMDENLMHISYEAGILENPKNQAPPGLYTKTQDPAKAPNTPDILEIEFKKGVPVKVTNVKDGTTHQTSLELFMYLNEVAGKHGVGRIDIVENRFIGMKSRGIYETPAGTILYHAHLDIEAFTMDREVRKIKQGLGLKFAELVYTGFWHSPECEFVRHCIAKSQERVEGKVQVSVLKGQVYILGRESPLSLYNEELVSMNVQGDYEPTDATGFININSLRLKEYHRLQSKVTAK
T3 sequence (Q16531 whole entry partner, the tested form may be a part, canonical isoform): as the sequence (Q16531 whole entry partner, the tested form may be a part, canonical isoform) above
T1 sequence (Q96SW2 whole entry, the tested form may be a part, canonical isoform): as the sequence (Q96SW2 whole entry, the tested form may be a part, canonical isoform) above
T1 sequence (Q13422 1-477 isoform Q13422-7 partner): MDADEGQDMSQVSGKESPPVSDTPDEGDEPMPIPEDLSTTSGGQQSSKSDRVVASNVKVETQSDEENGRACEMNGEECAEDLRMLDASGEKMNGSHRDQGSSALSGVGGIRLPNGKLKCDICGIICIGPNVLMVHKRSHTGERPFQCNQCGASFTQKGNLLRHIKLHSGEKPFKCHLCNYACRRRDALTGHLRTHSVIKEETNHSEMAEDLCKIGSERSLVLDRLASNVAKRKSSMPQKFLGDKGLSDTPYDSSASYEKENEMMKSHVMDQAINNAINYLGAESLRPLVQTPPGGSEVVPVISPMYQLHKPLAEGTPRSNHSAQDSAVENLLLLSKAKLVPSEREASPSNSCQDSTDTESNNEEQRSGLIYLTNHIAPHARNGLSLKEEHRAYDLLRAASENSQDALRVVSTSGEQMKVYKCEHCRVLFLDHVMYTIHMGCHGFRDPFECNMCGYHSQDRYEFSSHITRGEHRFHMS
T1 sequence (Q16531 whole entry partner, the tested form may be a part, canonical isoform): as the sequence (Q16531 whole entry partner, the tested form may be a part, canonical isoform) above

Compound | pEC50 [1] | Recruitment Assessment [2] | pEC50 [3] | pEC50 [4]
Cc1cccc2nnn(C3CCC(=O)NC3=O)c(=O)c12 (stereo not drawn) [C13247, 3-(5-methyl-4-oxo-1,2,3-benzotriazin-3-yl)piperidine-2,6-dione] | 5.54 | TRUE | 6.40 | 5.07
CS(=O)(=O)Nc1cccc2c1CN(C1CCC(=O)NC1=O)C2=O (stereo not drawn) [C22548, N-[2-(2,6-dioxo-3-piperidyl)-1-oxo-isoindolin-4-yl] methanesulfonamide] | 6.31 | TRUE | 6.20 | –
O=C1CCC(N2Cc3c(Cl)cccc3C2=O)C(=O)N1 (stereo not drawn) [C24031, 3-(4-chloro-1-oxo-isoindolin-2-yl)piperidine-2,6-dione] | 7.23 | TRUE | > 7.86 | 6.59
Cc1cccc2c1CN(C1CCC(=O)NC1=O)C2=O (stereo not drawn) [C28558, 3-(4-methyl-1-oxo-isoindolin-2-yl)piperidine-2,6-dione] | 7.11 | TRUE | > 7.86 | 6.43
Cc1ccc2c(c1)CN(C1CCC(=O)NC1=O)C2=O (stereo not drawn) [C28577, 3-(5-methyl-1-oxo-isoindolin-2-yl)piperidine-2,6-dione] | 5.79 | TRUE | > 7.86 | 6.19
O=C1CCCC(N2Cc3c(cccc3[N+](=O)[O-])C2=O)C(=O)N1 (stereo not drawn) [C29737, 3-(4-nitro-1-oxo-isoindolin-2-yl)azepane-2,7-dione] | 5.85 | TRUE | – | –
O=C1CCC(N2Cc3c(NC(=O)Nc4cccc5c4CN(C4CCC(=O)NC4=O)C5=O)cccc3C2=O)C(=O)N1 (stereo not drawn) [C30231, 1,3-bis[2-(2,6-dioxo-3-piperidyl)-1-oxo-isoindolin-4-yl]urea] | 5.56 | TRUE | 5.77 | –
O=C1CCC(N2Cc3cc(NCCNC(=O)Nc4ccccc4)ccc3C2=O)C(=O)N1 (stereo not drawn) [C35751, 1-[2-[[2-(2,6-dioxo-3-piperidyl)-1-oxo-isoindolin-5-yl]amino]ethyl]-3-phenyl-urea] | – | TRUE | 6.63 | 5.84
O=C1CCC(N2Cc3cc(NCC(=O)Nc4ccccc4)ccc3C2=O)C(=O)N1 (stereo not drawn) [C35797, 2-[[2-(2,6-dioxo-3-piperidyl)-1-oxo-isoindolin-5-yl]amino]-N-phenyl-acetamide] | 5.88 | TRUE | 5.97 | –
Cc1cccc2c(=O)n(C3CCC(=O)NC3=O)nnc12 (stereo not drawn) [C35830, 3-(8-methyl-4-oxo-1,2,3-benzotriazin-3-yl)piperidine-2,6-dione] | – | TRUE | 6.23 | 5.25
O=C(CNc1ccc2c(c1)CN(C1CCC(=O)NC1=O)C2=O)NCc1ccccc1 (stereo not drawn) [C35856] | 5.94 | TRUE | 6.73 | –
N#CC1c2ccccc2C(=O)N1C1CCC(=O)NC1=O (stereo not drawn) [C39453, 2-(2,6-dioxo-3-piperidyl)-3-oxo-isoindoline-1-carbonitrile] | 4.77 | TRUE | 6.06 | –
Nc1cccc2c1CN(C1CC(=O)NC1=O)C2=O (stereo not drawn) [C47930, 3-(4-amino-1-oxo-isoindolin-2-yl)pyrrolidine-2,5-dione] | 6.11 | TRUE | – | –
N#Cc1ccc2c(c1)C(=O)N(C1CCC(=O)NC1=O)C2 (stereo not drawn) [C48007, 2-(2,6-dioxo-3-piperidyl)-3-oxo-isoindoline-5-carbonitrile] | 5.79 | TRUE | 6.37 | –
O=C1CCC(N2Cc3c(cccc3-c3ccccc3)C2=O)C(=O)N1 (stereo not drawn) [C48014, 3-(1-oxo-4-phenyl-isoindolin-2-yl)piperidine-2,6-dione] | 5.91 | TRUE | 7.21 | 6.04
CC1c2ccccc2C(=O)N1C1CCC(=O)NC1=O (stereo not drawn) [C51383, 3-(1-methyl-3-oxo-isoindolin-2-yl)piperidine-2,6-dione] | 5.82 | TRUE | 7.23 | 5.77

Compound | pEC50 [1] | Recruitment Assessment [2] | pEC50 [3] | pEC50 [4]
Nc1cccc2nnn(C3CCC(=O)NC3=O)c(=O)c12 (stereo not drawn) [C59904, 3-(5-amino-4-oxo-1,2,3-benzotriazin-3-yl)piperidine-2,6-dione] | 6.91 | TRUE | 6.48 | 6.16
O=C1CCC(N2C(=O)C3=C(C2=O)c2ccccc2CC3)C(=O)N1 (stereo not drawn) [C64340, 2-(2,6-dioxo-3-piperidyl)-4,5-dihydrobenzo[e]isoindole-1,3-dione] | – | TRUE | 5.83 | –
O=C1CCC(N2Cc3c(ccc4c3OCO4)C2=O)C(=O)N1 (stereo not drawn) [C67858, 3-(6-oxo-8H-[1,3]dioxolo[4,5-e]isoindol-7-yl)piperidine-2,6-dione] | 6.24 | TRUE | 7.53 | 6.05
O=C1CCC(N2Cc3cc4c(cc3C2=O)OCO4)C(=O)N1 (stereo not drawn) [C68126, 3-(7-oxo-5H-[1,3]dioxolo[4,5-f]isoindol-6-yl)piperidine-2,6-dione] | – | TRUE | 6.50 | –
O=C1CCC(N2Cc3cc(Nc4ncccn4)ccc3C2=O)C(=O)N1 (stereo not drawn) [C80369, 3-[1-oxo-5-(pyrimidin-2-ylamino)isoindolin-2-yl]piperidine-2,6-dione] | – | TRUE | – | 5.89
O=C1CCC(N2Cc3cc(Nc4ncc5[nH]cnc5n4)ccc3C2=O)C(=O)N1 (stereo not drawn) [C80376, 3-[1-oxo-5-(7H-purin-2-ylamino)isoindolin-2-yl]piperidine-2,6-dione] | – | TRUE | 6.25 | –
N#Cc1ccc(Nc2ccc3c(c2)CN(C2CCC(=O)NC2=O)C3=O)nn1 (stereo not drawn) [C80378, 6-[[2-(2,6-dioxo-3-piperidyl)-1-oxo-isoindolin-5-yl]amino] pyridazine-3-carbonitrile] | – | TRUE | 6.41 | 5.03
O=C1CCC(N2Cc3cc(Nc4ncc5c(n4)COC5)ccc3C2=O)C(=O)N1 (stereo not drawn) [C80380, 3-[5-(5,7-dihydrofuro[3,4-d]pyrimidin-2-ylamino)-1-oxo-isoindolin-2-yl]piperidine-2,6-dione] | 5.75 | TRUE | 8.00 | –
O=C1CCC(N2Cc3ccc(Nc4ncc5c(n4)COC5)cc3C2=O)C(=O)N1 (stereo not drawn) [C80391, 3-[6-(5,7-dihydrofuro[3,4-d]pyrimidin-2-ylamino)-1-oxo-isoindolin-2-yl]piperidine-2,6-dione] | – | TRUE | 6.82 | –
O=C1CCC(N2Cc3ccc(NC(=O)c4cnc5nccn5c4)cc3C2=O)C(=O)N1 (stereo not drawn) [C80396, N-[2-(2,6-dioxo-3-piperidyl)-3-oxo-isoindolin-5-yl]imidazo[1,2-a] pyrimidine-6-carboxamide] | – | TRUE | 5.86 | –
CC(Nc1ccc2c(c1)C(=O)N(C1CCC(=O)NC1=O)C2)C(=O)O (stereo not drawn) [C84970, 2-[[2-(2,6-dioxo-3-piperidyl)-3-oxo-isoindolin-5-yl]amino] propanoic acid] | – | TRUE | 6.00 | –
O=C1CCC(N2Cc3ccccc3C2)C(=O)N1 (stereo not drawn) [C87699, 3-isoindolin-2-ylpiperidine-2.6-dione] | – | TRUE | 5.32 | –
O=C1CCC(N2C(=O)c3ccccc3C2O)C(=O)N1 (stereo not drawn) [C89940, 3-(1-hydroxy-3-oxo-isoindolin-2-yl)piperidine-2,6-dione] | – | TRUE | 6.36 | –
CN(C)c1ccc2c(c1)CN(C1CCC(=O)NC1=O)C2=O (stereo not drawn) [C98103, 3-[5-(dimethylamino)-1-oxo-isoindolin-2-yl]piperidine-2,6-dione] | 5.89 | TRUE | > 7.86 | –
Cc1ccc(NC(=O)NCc2ccc3c(c2)CN(C2CCC(=O)NC2=O)C3=O)cc1Cl (stereo not drawn) [CC-885, 1-(3-chloro-4-methyl-phenyl)-3-[[2-(2,6-dioxo-3-piperidyl)-1-oxo-isoindolin-5-yl]methyl]urea, reference compound] | > 7.86 | TRUE | – | 7.10
O=C(O)CN1CCN(Cc2ccc(COc3cccc4c3CN(C3CCC(=O)NC3=O)C4=O)cc2)CC1.O=CO (stereo not drawn) [ZE26-0001, 2-[4-[[4-[[2-(2,6-dioxo-3-piperidyl)-1-oxo-isoindolin-4-yl]oxymethyl]phenyl]methyl]piperazin-1-yl]acetic acid; formic acid] | 5.33 | TRUE | 6.10 | –
